Patent US9205046B2, “Enhanced stability of inverse thermal gelling composite hydrogels” (The Governing Council of the University of Toronto, priority 2005, dated 2015)
“Also recorded” adds a separate entry of the source.

How the values were obtained:
[1] = Characterization of drug loaded PLGA particles; format: physicochemical; conditions: laser diffraction or dynamic light scattering
Experimental: PLGA microparticle synthesis was optimized for each factor encapsulated and thus synthesis varied slightly for each factor, described below for EGF, dbcAMP, IgG and α-chymotrypsin. Microparticle size was determined by laser diffraction (Mastersizer 2000™, Malvern Instruments, Malvern, UK): nanoparticle size was determined by dynamic light scattering (Zetasizer Nano ZS™, Malvern Instruments). Encapsulation efficiency was defined as the fraction of drug detected per unit mass of particle compared to the theoretical maximum. Particle yield is the mass of recovered particulate PLGA adjusted for drug content, divided by the initial PLGA mass. Drug loading is the mass fraction of drug in the particles expressed as microgram of drug per milligram of particles.
EGF content was determined by degrading the PLGA in 1 M NaOH for 24 h at 37° C., centrifuging the resulting suspension and assaying the supernatant for total protein using the BCA assay.
dbcAMP content was determined by DCM/water solvent extraction. PLGA was dissolved in DCM and extracted 3×. Aqueous dbcAMP concentration was determined by UV absorbance at 273 nm on a Nanodrop ND-1000™ (Thermo Fisher Scientific).
Protein content was determined based on a method by Wong [Wong, H. M., Wang, J. J., and Wang, C, In Vitro Sustained Release of Human Immunoglobulin G from Biodegradable Microspheres. Ind. Eng. Chem. Res., 2001. 40: p. 933-948]. […]

[2] = In vitro drug release from HAMC hydrogels and composites; format: physicochemical; conditions: for burst release from PLGA particles in composite versus free particles: composite 2:3 HMW HAMC
Experimental: Release profiles of each particle encapsulated drug were obtained by depositing approximately 150 mg of drug loaded 2:3 HMW HAMC into polypropylene sample tubes, warming to 37° C., and adding 600 μL warm aCSF. […] Particle loads were typically 30-40 mg PLGA per gram of composite. […] All sample aliquots were immediately frozen and stored at −20° C. until analysis. […] Each sample was thawed immediately prior to assay and clear supernatant analyzed for dissolved drug.

[3] = tested on: mature blood vessels in the dorsal horns of the injured spinal cord; assay: Intrathecal FGF2 delivery with composite HAMC after compressive spinal cord injury, SMI-71 blood vessel count; format: in vivo, Sprague Dawley rats; conditions: rat, moderate compressive SCI at T2, 10 μl intrathecal composite 1:3 HMW HAMC with FGF2 PLGA nanoparticles, 28 days
Experimental: Physical hydrogel blends of hyaluronan (HA) and methyl cellulose (MC) were prepared in aCSF at 1 wt % 2600 kg/mol HA and 3 wt % 300 kg/mol MC as previously reported (1:3 HMW HAMC [M. D. Baumann, C. E. Kang, J. C. Stanwick, Y. Wang, H. Kim, Y. Lapitsky, and M. S. Shoichet, An injectable drug delivery platform for sustained combination therapy, J Control Release. (2009)]. Briefly, MC and HA were sequentially mechanically dispersed in aCSF and allowed to dissolve at 4° C. To form composite 1:3 HMW HAMC, slurries of particles were added together for a final concentration of 100 mg/mL. PLGA nanoparticles were prepared from a w/o/w double emulsion as previously described [[…]], either as blank nanoparticles or encapsulating FGF2.
All animal procedures were performed in accordance with the Guide to the Care and Use of Experimental Animals (Canadian Council on Animal Care) and protocols were approved by the Animal Care Committee of the Research Institute of the University Health Network. […] Blood vessels were then counted in the dorsal horns of the spinal cord (See FIG. 8). Statistical significance was determined by ANOVA followed by Tukey's post-hoc test.

[4] = Drug diffusivity in HMW HAMC; format: physicochemical; conditions: in 2:3 HMW HAMC
From the text: The diffusivity of a given drug in HMW HAMC, D, was normalized to its diffusivity in water, Do, to determine the impact of HMW HAMC on molecular diffusion [N. A. Peppas, C. T. Reinhart, Solute diffusion in swollen membranes. 1. A new theory. J. Membr. Sci. 15 (3) (1983) 275-287. Approximations of D for NBQX, α-chymotrypsin, and IgG in HMW HAMC were estimated according to the one dimensional, unidirectional, thin film approximation for non-swelling samples at short times [J. Crank, The Mathematics of Diffusion, Clarendon Press, Oxford, 1956.]. Normalized diffusion coefficients were then determined with respect to previously reported values of Do according to:
[formula] Where Mt/M∞ is the cumulative mass of drug detected at time, t, divided by the total mass released and l is the sample thickness.
Approximately 100 mg of HAMC with a drug loading of 100-1000 μg/mL was deposited into a cylindrical sample tube to yield a gel with thickness of 0.3 cm and one exposed surface. Samples were warmed to 37° C. and combined with 900 μL of warm aCSF. The buffer was sampled with total replacement at 0.5, 1, 2, and 5 hours and analyzed and described below.

| duration of in vitro release of PLGA particle encapsulated drug ([2]; PLGA particles dispersed in composite 2:3 HMW HAMC) [days] | Molecule | Particle Size (μm) [1] [μm] | burst release from PLGA particles in composite versus free particles [2] | mature blood vessels in the dorsal horns (angiogenesis) [3] | release mechanism of dissolved drug ([2]; dissolved in 2:3 HMW HAMC) | time to complete in vitro release of dissolved drug ([2]; dissolved in 2:3 HMW HAMC, aCSF, 37 °C) [days] | normalized diffusion coefficient [4] |
| --- | --- | --- | --- | --- | --- | --- | --- |
| 28 | CCCC(=O)Nc1ncnc2c1ncn2[C@@H]1O[C@@H]2COP(=O)([O-])O[C@H]2[C@H]1OC(=O)CCC.[Na+] [dbcAMP, N^6,2′-O-dibutyryladenosine 3′,5′-cyclic monophosphate sodium salt, reference compound] | 37 ± 14 | reduction in burst release | – | – | – | – |
| – | EGF: Recombinant human epidermal growth factor | 10 ± 2 | atypical behaviour | – | – | – | – |
| – | FGF-2: Recombinant human basic fibroblast growth factor | – | – | results in angiogenesis; also recorded: enhanced blood vessels | diffusion limited | ≤ 4 | ~0.1 |
| – | 2,3-Dioxo-6-nitro-1,2,3,4-tetrahydrobenzo[f]quinoxaline-7-sulfonamide disodium salt [NBQX, reference compound] | – | – | – | diffusion limited | – | ~0.1 |
